Assay results taken from ChEMBL document CHEMBL3580659, “One-pot multicomponent synthesis of indole incorporated thiazolylcoumarins and their antibacterial, anticancer and DNA cleavage studies” (2015).

How the values were obtained:
Assay type in all cases: functional
A498 = test: Cytotoxicity against human A498 cells assessed as cell growth level at 1 uM after 48 hrs by sulforhodamine B assay
786-0 = test: Cytotoxicity against human 786-0 cells assessed as cell growth level at 100 nM after 48 hrs by sulforhodamine B assay
COLO 205 [1] = test: Cytotoxicity against human COLO205 cells assessed as cell growth level at 100 uM after 48 hrs by sulforhodamine B assay
UACC-62 = test: Cytotoxicity against human UACC62 cells assessed as cell growth level at 100 uM after 48 hrs by sulforhodamine B assay
CCRF-CEM = test: Cytotoxicity against human CCRF-CEM cells assessed as cell growth level at 100 nM after 48 hrs by sulforhodamine B assay
RPMI-8226 [2] = test: Cytotoxicity against human RPMI8226 cells assessed as cell growth level at 1 uM after 48 hrs by sulforhodamine B assay
HOP-62 [3] = test: Cytotoxicity against human HOP62 cells after 48 hrs by sulforhodamine B assay; conditions: HOP-62, 48 h
OVCAR-5 = test: Cytotoxicity against human OVCAR5 cells assessed as cell growth level at 10 uM after 48 hrs by sulforhodamine B assay
OVCAR-8 = test: Cytotoxicity against human OVCAR8 cells assessed as cell growth level at 10 uM after 48 hrs by sulforhodamine B assay
K562 [4] = test: Cytotoxicity against human K562 cells assessed as cell growth level at 100 uM after 48 hrs by sulforhodamine B assay
SK-MEL-5 [5] = test: Cytotoxicity against human SK-MEL-5 cells assessed as cell growth level at 1 uM after 48 hrs by sulforhodamine B assay
RPMI-8226 [6] = test: Cytotoxicity against human RPMI8226 cells assessed as cell growth level at 100 uM after 48 hrs by sulforhodamine B assay
OVCAR-3 = test: Cytotoxicity against human OVCAR3 cells after 48 hrs by sulforhodamine B assay; conditions: OVCAR-3, 48 h
COLO 205 [7] = test: Cytotoxicity against human COLO205 cells assessed as cell growth level at 1 uM after 48 hrs by sulforhodamine B assay
M14 = test: Cytotoxicity against human M14 cells assessed as cell growth level at 10 uM after 48 hrs by sulforhodamine B assay
MDA-MB-468 = test: Cytotoxicity against human MDA-MB-468 cells assessed as cell growth level at 100 nM after 48 hrs by sulforhodamine B assay
BT-549 = test: Cytotoxicity against human BT549 cells assessed as cell growth level at 10 nM after 48 hrs by sulforhodamine B assay
HCT-15 [8] = test: Cytotoxicity against human HCT15 cells assessed as cell growth level at 10 uM after 48 hrs by sulforhodamine B assay
RPMI-8226 [9] = test: Cytotoxicity against human RPMI8226 cells assessed as cell growth level at 10 nM after 48 hrs by sulforhodamine B assay
OVCAR-4 = test: Cytotoxicity against human OVCAR4 cells assessed as cell growth level at 10 nM after 48 hrs by sulforhodamine B assay
IGROV-1 = test: Cytotoxicity against human IGROV1 cells assessed as cell growth level at 100 uM after 48 hrs by sulforhodamine B assay
U-251 = test: Cytotoxicity against human U251 cells after 48 hrs by sulforhodamine B assay; conditions: U-251, 48 h
MDA-MB-435 = test: Cytotoxicity against human MDA-MB-435 cells assessed as cell growth level at 10 uM after 48 hrs by sulforhodamine B assay
HL-60(TB) = test: Cytotoxicity against human HL-60(TB) cells assessed as cell growth level at 1 uM after 48 hrs by sulforhodamine B assay
NCI-H226 = test: Cytotoxicity against human NCI-H226 cells assessed as cell growth level at 10 nM after 48 hrs by sulforhodamine B assay
SK-MEL-28 = test: Cytotoxicity against human SK-MEL-28 cells after 48 hrs by sulforhodamine B assay; conditions: SK-MEL-28, 48 h
SF-268 = test: Cytotoxicity against human SF268 cells assessed as cell growth level at 100 uM after 48 hrs by sulforhodamine B assay
NCI-H522 = test: Cytotoxicity against human NCI-H522 cells assessed as cell growth level at 100 uM after 48 hrs by sulforhodamine B assay
A549 = test: Cytotoxicity against human A549/ATCC cells assessed as cell growth level at 10 nM after 48 hrs by sulforhodamine B assay
HT-29 = test: Cytotoxicity against human HT-29 cells after 48 hrs by sulforhodamine B assay; conditions: HT-29, 48 h
CAKI-1 = test: Cytotoxicity against human CAKI-1 cells assessed as cell growth level at 10 nM after 48 hrs by sulforhodamine B assay
SK-MEL-5 [10] = test: Cytotoxicity against human SK-MEL-5 cells assessed as cell growth level at 100 nM after 48 hrs by sulforhodamine B assay
HCT-15 [11] = test: Cytotoxicity against human HCT15 cells assessed as cell growth level at 100 nM after 48 hrs by sulforhodamine B assay
LOX IMVI = test: Cytotoxicity against human LOXIMVI cells assessed as cell growth level at 10 uM after 48 hrs by sulforhodamine B assay
HOP-92 = test: Cytotoxicity against human HOP92 cells assessed as cell growth level at 100 nM after 48 hrs by sulforhodamine B assay
COLO 205 [12] = test: Cytotoxicity against human COLO205 cells assessed as cell growth level at 100 nM after 48 hrs by sulforhodamine B assay
SW-620 = test: Cytotoxicity against human SW620 cells assessed as cell growth level at 1 uM after 48 hrs by sulforhodamine B assay
HOP-62 [13] = test: Cytotoxicity against human HOP62 cells assessed as cell growth level at 1 uM after 48 hrs by sulforhodamine B assay
K562 [14] = test: Cytotoxicity against human K562 cells assessed as cell growth level at 100 nM after 48 hrs by sulforhodamine B assay
HOP-62 [15] = test: Cytotoxicity against human HOP62 cells assessed as cell growth level at 10 uM after 48 hrs by sulforhodamine B assay
[16] = read-out: LC50 (the source's name)
[17] = read-out: pLC50 (the source's name) (converted)

In the case of `O=c1oc2ccccc2cc1-c1csc(N/N=C/c2c[nH]c3ccccc23)n1`, the Activity (A498) is reported as 61%, the Activity (786-0) is reported as 82% and the Activity (COLO 205 [1]) is reported as -36%. For the same compound, the Activity (UACC-62) was -27%, the Activity (CCRF-CEM) was 98% and the Activity (RPMI-8226 [2]) was 48%. It also gave a GI50 (HOP-62 [3]; read-out: GI50) of 3.73 µM, an LC50 (HOP-62 [3]; read-out: LC50) greater than 100 µM and a TGI (HOP-62 [3]; read-out: TGI) of 20 µM. The GI50 (HOP-62 [3]; read-out: pGI50 (converted)) was 3.72 µM, the LC50 (HOP-62 [3]; read-out: pLC50 (converted)) was greater than 100 µM and the TGI (HOP-62 [3]; read-out: pTGI (converted)) was 20 µM. It also gave an Activity (OVCAR-5) of 55.24%, an Activity (OVCAR-8) of 2.99% and an Activity (K562 [4]) of -38%. It also gave an Activity (SK-MEL-5 [5]) of 90%, an Activity (RPMI-8226 [6]) of -41% and a GI50 (OVCAR-3; read-out: GI50) of 1.16 µM. For the same compound, the CC50 (OVCAR-3; [16]) was 7.31 µM, the TGI (OVCAR-3; read-out: TGI) was 2.91 µM and the GI50 (OVCAR-3; read-out: pGI50 (converted)) was 1.15 µM. It also gave a CC50 (OVCAR-3; [17]) of 7.24 µM, a TGI (OVCAR-3; read-out: pTGI (converted)) of 2.88 µM and an Activity (COLO 205 [7]) of 109%. It also gave an Activity (M14) of 34.19%, an Activity (MDA-MB-468) of 83% and an Activity (BT-549) of 95%. The Activity (HCT-15 [8]) was 12.32%, the Activity (RPMI-8226 [9]) was 99% and the Activity (OVCAR-4) was 90%. It also gave an Activity (IGROV-1) of -71%, a GI50 (U-251; read-out: GI50) of 1.75 µM and a CC50 (U-251; [16]) of 77.7 µM. It also gave a TGI (U-251; read-out: TGI) of 5.6 µM, a GI50 (U-251; read-out: pGI50 (converted)) of 1.74 µM and a CC50 (U-251; [17]) of 77.6 µM. It also gave a TGI (U-251; read-out: pTGI (converted)) of 5.62 µM, an Activity (MDA-MB-435) of 22.44% and an Activity (HL-60(TB)) of 26%. The Activity (NCI-H226) was 98%, the GI50 (SK-MEL-28; read-out: GI50) was 3.96 µM and the CC50 (SK-MEL-28; [16]) was greater than 100 µM. It also gave a TGI (SK-MEL-28; read-out: TGI) of 96.9 µM, a GI50 (SK-MEL-28; read-out: pGI50 (converted)) of 3.98 µM and a CC50 (SK-MEL-28; [17]) greater than 100 µM. For the same compound, the TGI (SK-MEL-28; read-out: pTGI (converted)) was 97.7 µM, the Activity (SF-268) was -21% and the Activity (NCI-H522) was -80%. The Activity (A549) was 94%, the GI50 (HT-29; read-out: GI50) was 2.01 µM and the CC50 (HT-29; [16]) was greater than 100 µM. For the same compound, the TGI (HT-29; read-out: TGI) was 5.55 µM, the GI50 (HT-29; read-out: pGI50 (converted)) was 2 µM and the CC50 (HT-29; [17]) was greater than 100 µM. It also gave a TGI (HT-29; read-out: pTGI (converted)) of 5.5 µM, an Activity (CAKI-1) of 95% and an Activity (SK-MEL-5 [10]) of 88%. It also gave an Activity (HCT-15 [11]) of 96%, an Activity (LOX IMVI) of -52.19% and an Activity (HOP-92) of 94%. It also gave an Activity (COLO 205 [12]) of 115%, an Activity (SW-620) of 72% and an Activity (HOP-62 [13]) of 103%. For the same compound, the Activity (K562 [14]) was 110% and the Activity (HOP-62 [15]) was 11.3%.
